# Test system: HCI-012 (organoid from a breast cancer xenograft)
# Test: CTG-3D luminescence at 96 h relative to day-0 seeding control (ratio to day 0); higher = more growth / less cytotoxicity; PDxO 3D drug screen, 96 h, CTG-3D normalised to day-0 seeding control.
# Conditions: 10 µM; days in culture: 162
row,SMILES,CTG-3D luminescence at 96 h
1,C[C@@H]1COCCN1c1cc(C2([S@](C)(=N)=O)CC2)nc(-c2cc[nH]c3nccc2-3)n1 [ceralasertib],1.3
2,CCN1CCN(Cc2ccc(Nc3ncc(F)c(-c4cc(F)c5nc(C)n(C(C)C)c5c4)n3)nc2)CC1 [abemaciclib],1.5
3,NC1(C(=O)N[C@@H](CCO)c2ccc(Cl)cc2)CCN(c2nc[nH]c3nccc2-3)CC1 [capivasertib],1.15
4,CC(C)n1nc(-c2ccc3oc(N)nc3c2)c2c(N)ncnc21 [sapanisertib],0.846
5,O=C(c1ccc(F)c(F)c1Nc1ccc(I)cc1F)N1CC(O)([C@@H]2CCCCN2)C1 [cobimetinib],1.45
6,C[C@H](NC(=O)CCC(F)(F)F)C(=O)N[C@@H]1C(=O)N(CCO)c2ncccc2-c2ccccc21 [crenigacestat],2.96
7,Cc1cc(Nc2ncc(Cl)c(Nc3ccccc3S(=O)(=O)C(C)C)n2)c(OC(C)C)cc1C1CCNCC1 [ceritinib],0.0143
8,CS(=O)(=O)c1ccc(C(=O)Nc2ccc(Cl)c(-c3ccccn3)c2)c(Cl)c1 [vismodegib],2.69
9,NC(=O)c1cccc2cn(-c3ccc([C@@H]4CCCNC4)cc3)nc12 [niraparib],0.415

# Same assay, conditions: 10 µM; days in culture: 201
row,SMILES,CTG-3D luminescence at 96 h
1,C[C@@H]1COCCN1c1cc(C2([S@](C)(=N)=O)CC2)nc(-c2cc[nH]c3nccc2-3)n1 [ceralasertib],0.577
2,CCN1CCN(Cc2ccc(Nc3ncc(F)c(-c4cc(F)c5nc(C)n(C(C)C)c5c4)n3)nc2)CC1 [abemaciclib],1.47
3,NC1(C(=O)N[C@@H](CCO)c2ccc(Cl)cc2)CCN(c2nc[nH]c3nccc2-3)CC1 [capivasertib],0.543
4,CC(C)n1nc(-c2ccc3oc(N)nc3c2)c2c(N)ncnc21 [sapanisertib],0.293
5,O=C(c1ccc(F)c(F)c1Nc1ccc(I)cc1F)N1CC(O)([C@@H]2CCCCN2)C1 [cobimetinib],1.02
6,C[C@H](NC(=O)CCC(F)(F)F)C(=O)N[C@@H]1C(=O)N(CCO)c2ncccc2-c2ccccc21 [crenigacestat],1.67
7,Cc1cc(Nc2ncc(Cl)c(Nc3ccccc3S(=O)(=O)C(C)C)n2)c(OC(C)C)cc1C1CCNCC1 [ceritinib],0.00702
8,CS(=O)(=O)c1ccc(C(=O)Nc2ccc(Cl)c(-c3ccccn3)c2)c(Cl)c1 [vismodegib],1.8
9,NC(=O)c1cccc2cn(-c3ccc([C@@H]4CCCNC4)cc3)nc12 [niraparib],0.307

# Same assay, conditions: 100 µM; days in culture: 143
row,SMILES,CTG-3D luminescence at 96 h
1,C[C@@H]1COCCN1c1cc(C2([S@](C)(=N)=O)CC2)nc(-c2cc[nH]c3nccc2-3)n1 [ceralasertib],0.319
2,CCN1CCN(Cc2ccc(Nc3ncc(F)c(-c4cc(F)c5nc(C)n(C(C)C)c5c4)n3)nc2)CC1 [abemaciclib],0.0151
3,NC1(C(=O)N[C@@H](CCO)c2ccc(Cl)cc2)CCN(c2nc[nH]c3nccc2-3)CC1 [capivasertib],0.0899
4,CC(C)n1nc(-c2ccc3oc(N)nc3c2)c2c(N)ncnc21 [sapanisertib],0.181
5,O=C(c1ccc(F)c(F)c1Nc1ccc(I)cc1F)N1CC(O)([C@@H]2CCCCN2)C1 [cobimetinib],-0.00459
6,C[C@H](NC(=O)CCC(F)(F)F)C(=O)N[C@@H]1C(=O)N(CCO)c2ncccc2-c2ccccc21 [crenigacestat],2.65
7,Cc1cc(Nc2ncc(Cl)c(Nc3ccccc3S(=O)(=O)C(C)C)n2)c(OC(C)C)cc1C1CCNCC1 [ceritinib],-0.00596
8,CS(=O)(=O)c1ccc(C(=O)Nc2ccc(Cl)c(-c3ccccn3)c2)c(Cl)c1 [vismodegib],0.427
9,NC(=O)c1cccc2cn(-c3ccc([C@@H]4CCCNC4)cc3)nc12 [niraparib],-0.00164

# Same assay, conditions: 100 µM; days in culture: 162
row,SMILES,CTG-3D luminescence at 96 h
1,C[C@@H]1COCCN1c1cc(C2([S@](C)(=N)=O)CC2)nc(-c2cc[nH]c3nccc2-3)n1 [ceralasertib],0.451
2,CCN1CCN(Cc2ccc(Nc3ncc(F)c(-c4cc(F)c5nc(C)n(C(C)C)c5c4)n3)nc2)CC1 [abemaciclib],0.0215
3,NC1(C(=O)N[C@@H](CCO)c2ccc(Cl)cc2)CCN(c2nc[nH]c3nccc2-3)CC1 [capivasertib],0.236
4,CC(C)n1nc(-c2ccc3oc(N)nc3c2)c2c(N)ncnc21 [sapanisertib],0.197
5,O=C(c1ccc(F)c(F)c1Nc1ccc(I)cc1F)N1CC(O)([C@@H]2CCCCN2)C1 [cobimetinib],0.00171
6,C[C@H](NC(=O)CCC(F)(F)F)C(=O)N[C@@H]1C(=O)N(CCO)c2ncccc2-c2ccccc21 [crenigacestat],2.74
7,Cc1cc(Nc2ncc(Cl)c(Nc3ccccc3S(=O)(=O)C(C)C)n2)c(OC(C)C)cc1C1CCNCC1 [ceritinib],-0.00682
8,CS(=O)(=O)c1ccc(C(=O)Nc2ccc(Cl)c(-c3ccccn3)c2)c(Cl)c1 [vismodegib],0.492
9,NC(=O)c1cccc2cn(-c3ccc([C@@H]4CCCNC4)cc3)nc12 [niraparib],-0.00213

# Same assay, conditions: 100 µM; days in culture: 201
row,SMILES,CTG-3D luminescence at 96 h
1,C[C@@H]1COCCN1c1cc(C2([S@](C)(=N)=O)CC2)nc(-c2cc[nH]c3nccc2-3)n1 [ceralasertib],0.973
2,CCN1CCN(Cc2ccc(Nc3ncc(F)c(-c4cc(F)c5nc(C)n(C(C)C)c5c4)n3)nc2)CC1 [abemaciclib],0.0218
3,NC1(C(=O)N[C@@H](CCO)c2ccc(Cl)cc2)CCN(c2nc[nH]c3nccc2-3)CC1 [capivasertib],0.269
4,CC(C)n1nc(-c2ccc3oc(N)nc3c2)c2c(N)ncnc21 [sapanisertib],0.0781
5,O=C(c1ccc(F)c(F)c1Nc1ccc(I)cc1F)N1CC(O)([C@@H]2CCCCN2)C1 [cobimetinib],-0.00449
6,C[C@H](NC(=O)CCC(F)(F)F)C(=O)N[C@@H]1C(=O)N(CCO)c2ncccc2-c2ccccc21 [crenigacestat],2.55
7,Cc1cc(Nc2ncc(Cl)c(Nc3ccccc3S(=O)(=O)C(C)C)n2)c(OC(C)C)cc1C1CCNCC1 [ceritinib],-0.00682
8,CS(=O)(=O)c1ccc(C(=O)Nc2ccc(Cl)c(-c3ccccn3)c2)c(Cl)c1 [vismodegib],0.943
9,NC(=O)c1cccc2cn(-c3ccc([C@@H]4CCCNC4)cc3)nc12 [niraparib],-0.207

# Same assay, conditions: 625 fM; days in culture: 143
row,SMILES,CTG-3D luminescence at 96 h
1,C[C@@H]1COCCN1c1cc(C2([S@](C)(=N)=O)CC2)nc(-c2cc[nH]c3nccc2-3)n1 [ceralasertib],2.02
2,CCN1CCN(Cc2ccc(Nc3ncc(F)c(-c4cc(F)c5nc(C)n(C(C)C)c5c4)n3)nc2)CC1 [abemaciclib],1.94
3,NC1(C(=O)N[C@@H](CCO)c2ccc(Cl)cc2)CCN(c2nc[nH]c3nccc2-3)CC1 [capivasertib],1.91
4,CC(C)n1nc(-c2ccc3oc(N)nc3c2)c2c(N)ncnc21 [sapanisertib],1.68
5,O=C(c1ccc(F)c(F)c1Nc1ccc(I)cc1F)N1CC(O)([C@@H]2CCCCN2)C1 [cobimetinib],1.71
6,C[C@H](NC(=O)CCC(F)(F)F)C(=O)N[C@@H]1C(=O)N(CCO)c2ncccc2-c2ccccc21 [crenigacestat],1.78
7,Cc1cc(Nc2ncc(Cl)c(Nc3ccccc3S(=O)(=O)C(C)C)n2)c(OC(C)C)cc1C1CCNCC1 [ceritinib],2.32
8,CS(=O)(=O)c1ccc(C(=O)Nc2ccc(Cl)c(-c3ccccn3)c2)c(Cl)c1 [vismodegib],1.88
9,NC(=O)c1cccc2cn(-c3ccc([C@@H]4CCCNC4)cc3)nc12 [niraparib],1.73

# Same assay, conditions: 625 fM; days in culture: 162
row,SMILES,CTG-3D luminescence at 96 h
1,C[C@@H]1COCCN1c1cc(C2([S@](C)(=N)=O)CC2)nc(-c2cc[nH]c3nccc2-3)n1 [ceralasertib],3.18
2,CCN1CCN(Cc2ccc(Nc3ncc(F)c(-c4cc(F)c5nc(C)n(C(C)C)c5c4)n3)nc2)CC1 [abemaciclib],3.16
3,NC1(C(=O)N[C@@H](CCO)c2ccc(Cl)cc2)CCN(c2nc[nH]c3nccc2-3)CC1 [capivasertib],3.5
4,CC(C)n1nc(-c2ccc3oc(N)nc3c2)c2c(N)ncnc21 [sapanisertib],2.82
5,O=C(c1ccc(F)c(F)c1Nc1ccc(I)cc1F)N1CC(O)([C@@H]2CCCCN2)C1 [cobimetinib],2.91
6,C[C@H](NC(=O)CCC(F)(F)F)C(=O)N[C@@H]1C(=O)N(CCO)c2ncccc2-c2ccccc21 [crenigacestat],2.57
7,Cc1cc(Nc2ncc(Cl)c(Nc3ccccc3S(=O)(=O)C(C)C)n2)c(OC(C)C)cc1C1CCNCC1 [ceritinib],2.82
8,CS(=O)(=O)c1ccc(C(=O)Nc2ccc(Cl)c(-c3ccccn3)c2)c(Cl)c1 [vismodegib],3
9,NC(=O)c1cccc2cn(-c3ccc([C@@H]4CCCNC4)cc3)nc12 [niraparib],3.12

# Same assay, conditions: 625 fM; days in culture: 201
row,SMILES,CTG-3D luminescence at 96 h
1,C[C@@H]1COCCN1c1cc(C2([S@](C)(=N)=O)CC2)nc(-c2cc[nH]c3nccc2-3)n1 [ceralasertib],1.75
2,CCN1CCN(Cc2ccc(Nc3ncc(F)c(-c4cc(F)c5nc(C)n(C(C)C)c5c4)n3)nc2)CC1 [abemaciclib],1.65
3,NC1(C(=O)N[C@@H](CCO)c2ccc(Cl)cc2)CCN(c2nc[nH]c3nccc2-3)CC1 [capivasertib],1.74
4,CC(C)n1nc(-c2ccc3oc(N)nc3c2)c2c(N)ncnc21 [sapanisertib],1.73
5,O=C(c1ccc(F)c(F)c1Nc1ccc(I)cc1F)N1CC(O)([C@@H]2CCCCN2)C1 [cobimetinib],1.35
6,C[C@H](NC(=O)CCC(F)(F)F)C(=O)N[C@@H]1C(=O)N(CCO)c2ncccc2-c2ccccc21 [crenigacestat],1.72
7,Cc1cc(Nc2ncc(Cl)c(Nc3ccccc3S(=O)(=O)C(C)C)n2)c(OC(C)C)cc1C1CCNCC1 [ceritinib],1.54
8,CS(=O)(=O)c1ccc(C(=O)Nc2ccc(Cl)c(-c3ccccn3)c2)c(Cl)c1 [vismodegib],1.59
9,NC(=O)c1cccc2cn(-c3ccc([C@@H]4CCCNC4)cc3)nc12 [niraparib],1.71

# Source: the supplement of paper PMC8882468
